Where two headings read alike, the source gives them in different places.
Experiments:
[1] = test system: Propionibact. acnes ATCC 6919; experiment: MIC by broth microdilution; type: cell-based, Propionibacterium acnes; settings: Cutibacterium acnes, ATCC6919; internal code L1014; anaerobic, 48 hours; read-out: MIC of the compounds
Escherichia coli = experiment: MIC by broth microdilution; type: cell-based; settings: internal code L47; for MIC: Escherichia coli, read-out: MIC of the compounds
Clostridium perfringens = experiment: microbe, parasite or virus in culture; type: cell-based; settings: read-out: MIC of the compounds
[2] = test system: Bacteroides fragilis ATCC 25285; experiment: MIC by broth microdilution; type: cell-based; settings: Bacteroides fragilis, ATCC25285; internal code L1011; anaerobic, 48 hours; read-out: MIC of the compounds
[3] = test system: Proteus vulgaris ATCC 881; experiment: MIC by broth microdilution; type: cell-based; settings: internal code L79; for MIC: Proteus vulgaris, ATCC881, read-out: MIC of the compounds
[4] = test system: Staph. epidermidis ATCC 12228; experiment: MIC by broth microdilution; type: cell-based; settings: internal code L147; for MIC: Staphylococcus epidermidis, ATCC12228, read-out: MIC of the compounds
[5] = test system: Haemoph. influenzae ATCC 19418; experiment: MIC by broth microdilution; type: cell-based, Haemophilus influenzae; settings: internal code L970, 5% carbon dioxide, 48 hours; for MIC: Haemophilus influenzae, ATCC19418, read-out: MIC of the compounds
Staph. aureus rifa-r^(2) = experiment: MIC by broth microdilution; type: cell-based; settings: for MIC: Staphylococcus aureus, read-out: MIC of the compounds
Neisseria gonorrhoeae = experiment: MIC by broth microdilution; type: cell-based; settings: internal code L997, 5% carbon dioxide, 48 hours; for MIC: Neisseria gonorrhoeae, read-out: MIC of the compounds
Staphylococcus aureus = experiment: MIC by broth microdilution; type: cell-based; settings: internal code L165; for MIC: Staphylococcus aureus, read-out: MIC of the compounds
Strept. pneumoniae = experiment: MIC by broth microdilution; type: cell-based; settings: internal code L44; for MIC: Streptococcus pneumoniae, read-out: MIC of the compounds
Staph. aureus rifa-r^(1) = experiment: MIC by broth microdilution; type: cell-based; settings: for MIC: Staphylococcus aureus, read-out: MIC of the compounds
[6] = test system: Esch. coli K12 rifa-r^(1); experiment: MIC by broth microdilution; type: cell-based, Escherichia coli; settings: Escherichia coli, read-out: MIC of the compounds
[7] = test system: Esch. coli K12 hyperpermeable; experiment: MIC by broth microdilution; type: cell-based, Escherichia coli; settings: Escherichia coli, read-out: MIC of the compounds
Klebsiella pneumoniae = experiment: MIC by broth microdilution; type: cell-based; settings: internal code L142, read-out: MIC of the compounds
[8] = test system: Staph. haemolyticus rifa-r^(2); experiment: MIC by broth microdilution; type: cell-based; settings: for MIC: Staphylococcus haemolyticus, read-out: MIC of the compounds
[9] = test system: Moraxella catarr. ATCC 8178; experiment: MIC by broth microdilution; type: cell-based, Moraxella catharralis; settings: ATCC8178, internal code L76, read-out: MIC of the compounds
Streptococcus pyogenes = experiment: MIC by broth microdilution; type: cell-based; settings: internal code L49; for MIC: Streptococcus pyogenes, read-out: MIC of the compounds
[10] = test system: Enterococc. faecalis ATCC 7080; experiment: MIC by broth microdilution; type: cell-based, Enterococcus faecalis; settings: internal code L149; for MIC: Enterococcus faecalis, ATCC7080, read-out: MIC of the compounds
[11] = test system: Pseudomonas aerug. ATCC10145; experiment: MIC by broth microdilution; type: cell-based, Pseudomonas aeruginosa; settings: internal code L4; for MIC: Pseudomonas, ATCC10145, read-out: MIC of the compounds
[12] = test system: Bacteroides fragilis ATCC 23745; experiment: MIC by broth microdilution; type: cell-based; settings: internal code L1010, anaerobic, 48 hours; for MIC: Bacteroides fragilis, ATCC23745, read-out: MIC of the compounds
Esch. coli K12 wild type = experiment: MIC by broth microdilution; type: cell-based; settings: Escherichia coli, K12WILDTYPE, internal code G210, read-out: MIC of the compounds
Staph. aureus Smith = experiment: MIC by broth microdilution; type: cell-based; settings: internal code L819
[13] = test system: Staphylococcus aureus Smith (Int. code L 819); experiment: Experimental septicemia in mice; type: in vivo; settings: treated once immediately after infection, survival on the 7th day; for ED50: Staphylococcus aureus, 168 h
Procedure: Some compounds of the invention were also tested in experimental septicemia in mice infected with Staphylococcus aureus Smith (Int. code L 819). For this purpose, groups of five mice were infected intraperitoneally with about 1 x 10^6 CFU of S. aureus Smith suspended in 0.5 ml of Difco bacteriological mucin. Untreated animals died within 48 hours. The other animals were treated once immediately after infection. On the 7th day the value of ED50 (expressed in mg/kg) was calculated by the method of Spearman-[…]., Statistical method in biological assay, page 254, C. Griffin Ltd., London, 1952), on the basis of the percentage of animals surviving at each dose.

Compound | MIC [1] [µg/mL] | MIC (Escherichia coli) [µg/mL] | MIC (Clostridium perfringens) [ng/mL] | MIC [2] [µg/mL] | MIC [3] [µg/mL] | MIC [4] [ng/mL] | MIC [5] [µg/mL] | MIC (Staph. aureus rifa-r^(2)) [µg/mL] | MIC (Neisseria gonorrhoeae) [µg/mL] | MIC (Staphylococcus aureus) [ng/mL] | MIC (Strept. pneumoniae) [µg/mL] | MIC (Staph. aureus rifa-r^(1)) [µg/mL] | MIC [6] [µg/mL] | MIC [7] [µg/mL] | MIC (Klebsiella pneumoniae) [µg/mL] | MIC [8] [µg/mL] | MIC [9] [ng/mL] | MIC (Streptococcus pyogenes) [µg/mL] | MIC [10] [µg/mL] | MIC [11] [µg/mL] | further results
CO[C@H]1/C=C/O[C@@]2(C)Oc3c(C)c(O)c4c(c3C2=O)C(=O)C=C(NC(=O)/C(C)=C\C=C\[C@H](C)[C@H](O)[C@@H](C)[C@@H](O)[C@@H](C)[C@H](OC(=O)CBr)[C@@H]1C)C4=O [Compound C1, 36-Bromorifamycin S] | 0.016 | 32 | 0.3 | 1 | 16 | 4 | 1 | 2 | 1 | 4 | 0.03 | 0.25 | > 128 | 0.25 | 128 | 32 | 8 | 0.03 | 1 | 32 | 
CCN(CC)CC(=O)O[C@H]1[C@H](C)[C@H](O)[C@H](C)[C@@H](O)[C@@H](C)/C=C/C=C(/C)C(=O)NC2=CC(=O)c3c(c(O)c(C)c4c3C(=O)[C@@](C)(O/C=C/[C@H](OC)[C@H]1C)O4)C2=O [Compound C12, 36-Diethylaminorifamycin S] | 0.5 | 32 |  |  | 8 | 8 | 1 | 32 | 1 | 30 | 0.03 |  | > 128 | ≤ 0.13 |  | 64 |  | 0.06 | 0.25 | 32 | MIC [12]: 2 µg/mL; MIC (Esch. coli K12 wild type): 64 µg/mL
CO[C@H]1/C=C/O[C@@]2(C)Oc3c(C)c(O)c4c(c3C2=O)C(=O)C=C(NC(=O)/C(C)=C\C=C\[C@H](C)[C@H](O)[C@@H](C)[C@@H](O)[C@@H](C)[C@H](OC(=O)COC(C)=O)[C@@H]1C)C4=O [Compound C13, 36-Acetyloxyrifamycin S] | 0.03 | 16 | 0.5 | 0.5 | 8 | 1 | 0.5 | 4 | 0.25 | 2 | 0.008 | 0.25 | > 128 | ≤ 0.13 | 64 | 32 | 4 | 0.008 | 0.13 | 32 | 
CO[C@H]1/C=C/O[C@@]2(C)Oc3c(C)c(O)c4c(c3C2=O)C(=O)C(N2CCOCC2)=C(NC(=O)/C(C)=C\C=C\[C@H](C)[C@H](O)[C@@H](C)[C@@H](O)[C@@H](C)[C@H](OC(=O)CBr)[C@@H]1C)C4=O [Compound C8, 36-Bromo-3-(4-morpholinyl)rifamycin S] | 0.004 | 8 | 1 | 0.03 | 8 | 1 | 0.13 | 0.5 | 0.03 | 2 | 0.03 | 0.5 | > 128 | ≤ 0.13 | 16 | 16 | 2 | 0.06 | 0.5 | 16 | 
CO[C@H]1/C=C/O[C@@]2(C)Oc3c(C)c(O)c4c(c3C2=O)C(=O)C(N2CCOCC2)=C(NC(=O)/C(C)=C\C=C\[C@H](C)[C@H](O)[C@@H](C)[C@@H](O)[C@@H](C)[C@H](OC(=O)CO)[C@@H]1C)C4=O [Compound C15, 36-Hydroxy-3-(4-morpholinyl)rifamycin S] | 0.016 | 8 | 1 | 0.03 | 8 | 1 | 0.06 | 4 | 0.03 | 2 | 0.016 | 2 | > 128 | ≤ 0.13 | 8 | 4 | 2 | 0.03 | 0.5 | 16 | 
CCn1cc(C(=O)OCC(=O)O[C@H]2[C@H](C)[C@H](O)[C@H](C)[C@@H](O)[C@@H](C)/C=C/C=C(/C)C(=O)NC3=C(N4CCOCC4)C(=O)c4c(c(O)c(C)c5c4C(=O)[C@@](C)(O/C=C/[C@H](OC)[C@H]2C)O5)C3=O)c(=O)c2cc(F)c(N3CCN(C)CC3)cc21 [Compound C24, 36-{[1-Ethyl-6-fluoro-1,4-dihydro-7-(4-methyl-1-piperazinyl)-4-oxo-3-quinolinyl]carbonyloxy}-3-(4-morpholinyl) rifamycin S] | 0.06 | 16 |  |  | 16 | 8 | 0.13 | 0.13 | 0.06 | 60 | 0.008 | 0.06 |  |  |  | 0.13 |  | 0.06 | 0.13 | 16 | MIC [12]: 0.13 µg/mL; MIC (Staph. aureus Smith; Staphylococcus aureus, read-out: MIC of the compounds): 0.06 µg/mL; ED50 ([13]; intravenous, read-out: ED50 IV route): 3.8 mg/kg; ED50 ([13]; sc, subcutaneous, read-out: ED50 SC route): > 50 mg/kg
36-[(1-Ethyl-6-fluoro-1,4-dihydro-7-(4-methyl-1-piperazinyl)-4-oxo-3-quinolinyl)carbonyloxy]-2'-(diethylamino)rifamycin P [Compound C22] |  |  |  |  |  |  |  |  |  |  |  |  |  |  |  |  |  |  |  |  | MIC of the compounds [12]: 0.13 µg/mL; MIC of the compounds (Escherichia coli): ≥128 µg/mL; MIC of the compounds [3]: 64 µg/mL; MIC of the compounds [4]: 0.06 µg/mL; MIC of the compounds [5]: 0.5 µg/mL; MIC of the compounds (Staph. aureus rifa-r^(2); internal code L1282, rifampicin resistant strain, highly resistant): 1 µg/mL; MIC of the compounds (Staph. aureus Smith): 0.06 µg/mL; MIC of the compounds (Neisseria gonorrhoeae): 0.25 µg/mL; MIC of the compounds (Staphylococcus aureus): 0.06 µg/mL; ED50 IV route ([13]; intravenous): 0.7 mg/kg; ED50 SC route ([13]; subcutaneous): 5.3 mg/kg; MIC of the compounds (Strept. pneumoniae): 0.06 µg/mL; MIC of the compounds (Staph. aureus rifa-r^(1); internal code L721, rifampicin resistant strain, moderately resistant): 0.13 µg/mL; MIC of the compounds ([8]; internal code L602, rifampicin resistant strain, highly resistant): 0.5 µg/mL; MIC of the compounds (Streptococcus pyogenes): 0.06 µg/mL; MIC of the compounds [10]: 2 µg/mL; MIC of the compounds [11]: 32 µg/mL
CO[C@H]1/C=C/O[C@@]2(C)Oc3c(C)c(O)c4c(c3C2=O)C(=O)C=C(NC(=O)/C(C)=C\C=C\[C@H](C)[C@H](O)[C@@H](C)[C@@H](O)[C@@H](C)[C@H](OC(=O)CCl)[C@@H]1C)C4=O [Compound C3, 36-Chlororifamycin S] | 0.03 | 32 | 0.3 | 0.13 | 8 | 8 | 1 | 16 | 0.13 | 4 | 0.03 | 1 | > 128 | 0.25 | 64 | 64 | 8 | 0.016 | 0.25 | 32 | 

Source: EP0700399B1, “36-DERIVATIVES OF RIFAMYCINS AND THEIR USE AS ANTIMICROBIAL AGENTS” (GRUPPO LEPETIT S.P.A., priority 1993, dated 1994)
